Laboratory results taken from patent publication US8440460B2, “Methods for transdifferentiating cells” (The Board of Regents of the University of Texas System, priority 2005, dated 2013).
Several values for one entry are separate records, joined by “and”; a condition that tells them apart may be missing. Equal values may be shown once.

How the values were obtained:
[1] = tested on: normal bone marrow stroma (MSC) CD45-negative cells; assay: FACS analysis of CD45 in treated CD45-negative normal bone marrow stroma cells (MSC); assay type: cell-based, human; conditions: FIG. 1 schedule
Description: Human bone marrow stroma cells were grown from the bone marrow of healthy individuals as described above. When the cultures matured and formed homogenous layers of fibroblast-looking cells (termed mesenchymal stem cells; MSC), the cells were trypsinized and analyzed by fluorescence activated cell scanner/sorter (FACS; above) for the presence of the cell surface marker CD45. When the adherent fibroblast-like MSC became CD45-negative, the cells were harvested and transferred to another tissue flask (day 1 of culture).
Generation of Bone Marrow Stroma Cell Cultures. […] The culture medium and floating cells were completely aspirated and replaced with fresh tissue culture medium. Upon confluence, cells were exposed to 0.05% trypsin and 0.53 mM EDTA (GIBCO) at 37° C. for 10 min. Following incubation, FCS (v/v) was added for 5 min., the cells were removed from the tissue culture flasks, washed in PBS, transferred to new tissue culture flasks at a low density, and incubated with fresh tissue culture media. The cells were expanded and tested until all hematopoietic elements were no more present and all cells were CD45-negative.
For the normal marrow stoma cultures, human bone marrow stroma cells were grown from the bone marrow of healthy individuals as described above. When the cultures had matured and formed homogenous layers of fibroblast-looking cells, the cells were trypsinized and analyzed by fluorescence activated cell scanner/sorter (FACS; above) for the presence of the cell surface marker CD45. When the adherent fibroblast-like cells became CD45-negative, the cells were harvested and transferred to another tissue flask (day 1 of culture).

[2] = tested on: HS-5 fibroblast cell line; assay: FACS analysis of hematopoietic cell surface markers (CD45, CD3, CD14, CD19) in treated HS-5 cells; assay type: cell-based, human; conditions: 5-azacytidine days 1 and 4, GM-CSF 50 ng/mL and SCF 50 ng/mL days 7 and 10 (FIG. 1 schedule), FACS day 13
Description: In these studies, HS-5 fibroblast cells were transferred to tissue culture flasks as described herein. 2.5 μg 5-azacytidine were added to the culture at days 1 and 4. Granulocyte macrophage colony-stimulating factor (GM-CSF; 50 ng/mL) and stem cell factor (SCF; 50 ng/mL) were added to the culture on days 7 and 10. The cells were harvested and analyzed for the presence of hematopoietic cell surface markets such as CD45 on day 13.
The human bone marrow stroma/MSC cell line HS-5 was obtained from ATCC. These fibroblast-like cells are plastic adherent and grow as a single layer in α-medium (GIBCO, Grand Island, N.Y.) supplemented with 10% fetal calf serum (FCS; Hyclone, Logan, Utah). […] When growth factors were added, α-medium was replaced with Iscove's modified Dulbecco's medium (IMDM; GIBCO).
For the HS-5 cultures, HS-5 fibroblast cells were transferred to tissue culture flasks as described. […] The cells were harvested and analyzed for the presence of hematopoietic cell surface markets such as CD45 on day 13.
In these studies, HS-5 cells were incubated with or without 5-azacytidine and/or growth factors according to the schedule described in FIG. 1. On day 13 the cells were harvested and analyzed for the presence of cell surface CD45 by FACS. All viable cells were analyzed and the CD45-corresponding isotypic control was used.

[3] = tested on: normal human foreskin fibroblasts; conditions: FIG. 2 schedule, FACS day 6
HS-5 cells [4] = assay: Flow cytometry of 5-methylcytidine as a marker of global DNA methylation in HS-5 cells; assay type: cell-based, human; conditions: 5-azacytidine 2.5 uM overnight
Description: FIG. 3: Azacytidine hypomethylates HS-5 cells. […] HS-5 cells were treated w/ and w/o 5-azacytidine 2.5 uM overnight. After incubation the cells were harvested and washed in PBS. The cells were then fixed and permeabilized using the BD Cytofix/Cytoperm kit (BD Biosciences, San Diego Calif.) as per the kit instructions. After fixation and permeabilization the cells were stained using mouse anti 5-methylcytadine (Serotec Inc., Raleigh N.C.) for 30 minutes. After washing the cells 3 times in the Permwash buffer provided with the BD kit, the mouse antibody was then detected using an RPE labeled rabbit anti mouse IgG (Serotec) for 30 minutes. After 3 additional wash steps, the cells were resuspended in staining buffer (as per the BD kit) and analyzed on a FACSCaliber flow cytometer (BD Immunnocytometry Systems, La Jolla Calif.) for any decrease in 5-methylcytidine. […]
HS-5 cells were treated w/ and w/o 5-azacytidine 2.5 uM overnight. […] After washing the cells 3 times in the Permwash buffer provided with the BD kit, the mouse antibody was then detected using an RPE labeled rabbit anti mouse IgG (Serotec) for 30 minutes. After 3 additional wash steps, the cells were resuspended in staining buffer (as per the BD kit) and analyzed on a FACSCaliber flow cytometer (BD Immunnocytometry Systems, La Jolla Calif.) for any decrease in 5-methylcytidine. […]

HS-5 cells [5] = assay: CFU-GM colony culture assay in methylcellulose; assay type: cell-based, human; conditions: 14 days
Description: FIG. 5: HS-5 cells transdifferentiate into hematopoietic colony-forming cells. Converted (see FIG. 1) and untreated HS-5 cells were harvested from the tissue culture flasks and culture in methylcellulose in a cl0nigtenic assay in the presence of 50 ng/mL GM-CSF, 50 ng/mL SCF and erythropoietin as described above. After 14 days the cultures were examined using an inverted microscope.
Colony-forming unit granulocyte-macrophage (CFU-GM) colony culture assay. The colony-forming unit-granulocyte-macrophage (CFU-GM) clonogenic assay was performed as previously described (49). Briefly, 2×10^5 treated and untreated cells were cultured in 0.8% methylcellulose in IMDM (GIBCO) supplemented with 10% FCS, and 50 ng/ml recombinant human granulocyte-macrophage colony-stimulating factor. […] All cultures were evaluated after 14 days for the number of CFU-GM colonies, defined as a cluster of more than 50 cells containing granulocytes, monocytes and macrophages. To identify the cells comprising the CFU-GM colonies, single colonies were microaspirated at random, transferred to glass slides, dried and stained with Write's stain and microscopically analyzed.
Converted (see FIG. 1) and untreated HS-5 cells were harvested from the tissue culture flasks and culture in methylcellulose in a cl0nigtenic assay in the presence of 50 ng/mL GM-CSF, 50 ng/mL SCF and erythropoietin as described above. […]

[6] = tested on: normal bone marrow-derived CD45-negative MSCs; assay: FACS analysis of endothelial markers CD133 and VEGFR-2 in treated bone marrow-derived CD45-negative MSCs; assay type: cell-based, human; conditions: five ng/mL 5-azacytidine days 1 and 4, 100 ng/mL EGF days 7 and 10; FACS day 13
Description: FIG. 9: Conversion of normal human bone marrow stroma to endothelial progenitor cells by 5-azacytidine and endothelial growth factor (EGF). Normal bone marrow-derived CD45-negative MSCs were used in this experiment and Five ng/mL of 5-azacytidine was added to culture on days 1 and 4, and 100 ng/mL EGF were added on days 7 and 10. The cultures were analyzed on day 13. The cells were stained with anti-CD133 APC and anti-VEGFR-2 PE antibodies and analyzed by FACS as described above. […] Note that the when treated with AZA+EGF 7.34% of MSC become CD133^+VEGFR-2^+.
In the next set of experiments the inventors determined whether fibroblasts could be reprogrammed to generate endothelial cells. […] Then, the cells were analyzed for the expression of two endothelial cell markers; the endothelial progenitor marker CD-133, as well as the expression of vascular endothelial growth factor-2 receptor (VEGFR-2).
In particular, normal bone marrow-derived CD45-negative mesenchymal cells (ie., bone marrow-derived fibroblastic cells) were used in this experiment and five ng/mL of 5-azacytidine was added to culture on days 1 and 4, and 100 ng/ml EGF were added on days 7 and 10. The cultures were analyzed on day 13. The cells were stained with anti-CD133 APC and anti-VEGFR-2 PE antibodies and analyzed by FACS as described above. […]

Molecule	CD45 expression (in words) ([1]; FACS day 13)	CD45 expression (in words) ([1]; FACS day 13, listed as 5-Azacytidine)	CD45 expression (in words) ([1]; FACS day 13, listed as 5-azcytidine)	cells expressing CD45 [2]	conversion into CD45-positive cells (in words) [3]	lateral/forward scatter analysis of the cell population [3]	effect on 5-methylcytidine (DNA methylation) (HS-5 cells [4])	microscopic evaluation of the colonies (HS-5 cells [5])	CD133+VEGFR-2+ cells [6] [%]
Nc1ncn([C@@H]2O[C@H](CO)[C@@H](O)[C@H]2O)c(=O)n1 [5-azacytidine]	slightly increased	unable to give rise to a significant number of blood cells	remained CD45-negative	3.5% and 11%	converted them into CD45-positive cells	generates a new transdifferentiated (“differentiated”) population of cells	hypomethylates	characteristics of mixed granulocyte macrophage lineage	4.14
EGF: epidermal growth factor	–	–	–	–	–	–	–	–	< 1.5
